Measured values taken from patent US20100150938A1, “METHODS AND COMPOSITIONS FOR REDUCING INFLAMMATION AND TREATING INFLAMMATORY DISORDERS” (UNIVERSITY OF MASSACHUSETTS, priority 2008, published 2010).

System: CCL-3/MIP1 a, CCL4/MIP1β and CXCL2/MIP2
Test: Chemokine mRNA in microglia (QRT-PCR)
Assay type: cell-based, mouse
Conditions: wild type microglial cells, Aβ 10 μM, 6 and 24 h
Description: Immortalized murine microglia were seeded in 6 well tissue culture plates, incubated in the absence or presence of 10 μM Aβ, washed with PBS and lysed in 1 mL TRIZOL reagent (Invitrogen). RNA was purified by organic extraction. 5 μg of RNA from each sample was reverse transcribed using multiscribe reverse transcriptase (Applied Biosystems). Oligonucleotide primers were designed using the Primer3 Input PCR primer design program (version 0.4.0.) and QRT-PCR experiments were performed using an iQ Real-Time PCR Detection System (Bio-Rad) and Optical System Software (Version 2.0, Bio-Rad). Relative quantification of mRNA expression was calculated by the comparative cycle method as described by the manufacturer.

In the case of Aβ 1-42 peptide, the “gene expression of chemokines CCL-3/MIP1 a, CCL4/MIP1β and CXCL2/MIP2” value is reported as “time-dependently upregulated”.
